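Compound exposure: 48 hours, 5 concentrations, 96-well plates. GI50 marks 50% less growth. At the TGI there is no net growth.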
What was measured:
Assay in all cases: inhibition of tumour cell growth, NCI panel, 48 h
SK-MEL-28 melanoma = system: SK-MEL-28 melanoma
COLO 205 colon = system: COLO 205 colon
UO-31 renal = system: UO-31 renal
KM12 colon = system: KM12 colon
SN12C renal = system: SN12C renal
OVCAR-8 ovarian = system: OVCAR-8 ovarian
OVCAR-3 ovarian = system: OVCAR-3 ovarian
CAKI-1 renal = system: CAKI-1 renal
SK-MEL-5 melanoma = system: SK-MEL-5 melanoma
M14 melanoma = system: M14 melanoma

SMILES	TGI (SK-MEL-28 melanoma)	TGI (COLO 205 colon)	TGI (UO-31 renal)	TGI (KM12 colon)	TGI (SN12C renal)	TGI (OVCAR-8 ovarian)	TGI (OVCAR-3 ovarian)	TGI (CAKI-1 renal)	GI50 (SK-MEL-5 melanoma)	TGI (SK-MEL-5 melanoma)	GI50 (SK-MEL-28 melanoma)	GI50 (COLO 205 colon)	GI50 (UO-31 renal)	GI50 (KM12 colon)	GI50 (OVCAR-8 ovarian)	GI50 (OVCAR-3 ovarian)	GI50 (CAKI-1 renal)	GI50 (M14 melanoma)	TGI (M14 melanoma)	GI50 (SN12C renal)
O=C1NC2(CCCCC2)C2CCCCC(O)C12 (stereo not drawn)	> 100 µM	> 100 µM	> 100 µM	> 100 µM	> 100 µM	> 100 µM	> 100 µM	> 100 µM												
COc1c2ccoc2c(/C=C/C=O)c2oc(-c3ccccc3)cc(=O)c12	9.17 µM	> 100 µM	35.2 µM	43.5 µM		> 100 µM	21.7 µM	> 100 µM	3.04 µM	12.3 µM	2.73 µM	27.7 µM	3.62 µM	16.5 µM	2.86 µM	5.19 µM	15.4 µM	3.32 µM	> 100 µM	
O=C(CCl)N1c2ccccc2Oc2ccc3ccccc3c21	3.34 µM	2.35 µM	2.53 µM	3.3 µM		2.28 µM	2.64 µM	3.8 µM	1.59 µM	2.98 µM	1.83 µM	0.894 µM	1.17 µM	1.8 µM	0.78 µM	1.23 µM	1.02 µM	1.14 µM	2.56 µM	
CCOC(=O)C1=C(C)CC2C(=O)OC(=O)C2C1(C)C (stereo not drawn)	> 100 µM	> 100 µM	> 100 µM	> 100 µM	> 100 µM	> 100 µM	> 100 µM			> 100 µM									> 100 µM	
CC1=C(C(=O)Nc2ccccc2C)C(c2ccco2)C(C(=O)Nc2ccccc2C)=C(C)N1C	> 100 µM		> 100 µM	> 100 µM	> 100 µM	> 100 µM	> 100 µM	> 100 µM		> 100 µM									> 100 µM	
CC(=O)[O][Hg][c]1c(N)c(C)cc(C)c1F	2.83 µM	3.53 µM	3.15 µM	22.7 µM	2.72 µM		2.28 µM	12.4 µM	1.48 µM	2.88 µM	1.37 µM	1.91 µM	1.64 µM	10.6 µM		1.01 µM	3.4 µM	1.55 µM	3.29 µM	1.36 µM
COc1ccc(-c2cc(=O)c3ccc(O)cc3o2)c(OC)c1OC	> 100 µM	> 100 µM		> 100 µM	> 100 µM		> 100 µM	> 100 µM											> 100 µM	
CC1CN1P1(N2CC2C)=NP(N2CC2C)(N2CC2C)=NP(N2CC2C)(N2CC2C)=N1 (stereo not drawn)	> 50 µM	> 50 µM	> 50 µM		> 50 µM	> 50 µM	> 50 µM	> 50 µM		> 50 µM									> 50 µM	
O=C(O)C(Cc1ccccc1)N1C(=O)N/C(=C\c2ccc(F)cc2)C1=O (stereo not drawn)		> 100 µM	> 100 µM	> 100 µM	> 100 µM	> 100 µM		> 100 µM		> 100 µM									> 100 µM	
COc1ccc2c(c1)C1(C=N2)CCN(C(C)=O)CC1	> 100 µM	> 100 µM		> 100 µM		> 100 µM	> 100 µM	> 100 µM		> 100 µM									> 100 µM	
O=[S@@]1Nc2ccc(Br)cc2S1	> 100 µM		7.43 µM	> 100 µM	> 100 µM		> 100 µM	> 100 µM		> 100 µM									> 100 µM	
CC(=O)OC(C)C(=O)C1c2cccc(O)c2C(=O)c2c(O)cc(C)cc21 (stereo not drawn)	2.3 µM	3.01 µM	0.744 µM	1.23 µM	2.24 µM	2.24 µM	1.43 µM			1.31 µM										
O=C(O)CCSC(=O)Nc1cccc(F)c1	> 100 µM	> 100 µM	> 100 µM	> 100 µM	> 100 µM	> 100 µM	> 100 µM												45.4 µM	
CNC(=O)c1cc(Oc2ccc3nc(NC(=O)Nc4ccc(Cl)c(C(F)(F)F)c4)sc3c2)ccn1				> 100 µM	> 100 µM	5.25 µM								3.41 µM	2.34 µM					2.44 µM
CCNC1C2(CCCCC2)NC(=O)C12CCCCC2 (stereo not drawn)	> 100 µM		> 100 µM	> 100 µM		> 100 µM	> 100 µM	> 100 µM		> 100 µM									> 100 µM	
N#CC(C#N)=c1ccc(=C2NCC3CCCN23)cc1 (stereo not drawn)		> 100 µM	> 100 µM	> 100 µM	> 100 µM	> 100 µM		> 100 µM		> 100 µM									> 100 µM	
COc1ccc(-n2/c(=N/C(=S)N(C)C)ss/c2=N\C(=S)N(C)C)cc1	> 100 µM	> 100 µM	> 100 µM	> 100 µM	> 100 µM	> 100 µM	53.1 µM	> 100 µM											> 100 µM	
c1cc2c(cc1NC1=NCCO1)CCC2	> 10 µM	> 10 µM		> 10 µM	> 10 µM	> 10 µM	> 10 µM			> 10 µM										
C/C(CCn1[nH]c(=O)ccc1=O)=N\O	> 100 µM		> 100 µM	> 100 µM	> 100 µM	> 100 µM	> 100 µM	> 100 µM		> 100 µM									> 100 µM	
